US9939427B2, “Method for evaluating the scent performance of perfumes or perfume mixtures” (Symrise AG, priority 2013, dated 2018)
Values belong to the compound of their own block, whether it stands above or below them.

Columns and labels:
Assay type in all cases: cell-based
OR52B4 = biological target: T1, OR52B4 (Homo sapiens, UniProt Q8NGK2); experiment: Ca-imaging of OR52B4-transfected HEK293 cells; set-up: key: ▪: 18 olfactory receptors responded to 32 odorants in related with specific anosmia; details: individual odorant 200 μM, significant response p<0.05
T1 construct: specific primers, which amplify the complete open reading frame; expressed in transfected cells; host or cells: HEK293
T1 sequence (Q8NGK2 1-314): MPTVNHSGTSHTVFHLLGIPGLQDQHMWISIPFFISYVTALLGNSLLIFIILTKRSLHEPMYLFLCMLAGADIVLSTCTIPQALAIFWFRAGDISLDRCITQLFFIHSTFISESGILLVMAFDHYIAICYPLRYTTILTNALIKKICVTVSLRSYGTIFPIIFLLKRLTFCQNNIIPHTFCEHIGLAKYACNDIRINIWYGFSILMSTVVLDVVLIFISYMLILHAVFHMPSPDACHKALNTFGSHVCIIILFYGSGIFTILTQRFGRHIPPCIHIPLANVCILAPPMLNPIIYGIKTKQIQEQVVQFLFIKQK
Description: (§1) HEK293 cells were cultivated in Petri dishes (Ø35 mm) as previously described (Benbernou et al. 2007). We grow up HEK293 cells in culture medium containing standard DMEM with 10% heat-inactivated fetal bovine serum, 2 mM L-glutamine, 100 units/ml penicillin, and 100 units/ml streptomycin in a humidified atmosphere (37° C., 5% CO2). After 2-3 days, the transfection process was carried out, whereby the cell culture was 70-80% confluent. The calciumphosphate method was applied to transfect DNA plasmid transiently in HEK293 cells in case of Ca-imaging method.
(§2) Calcium cations and phosphate anions created crystal precipitations coupled with DNA which could invade into the cells through endocytosis. Cells were transiently transfected with plasmid DNA which consists of pCI expression vector and PCR-amplified full-length cDNA of olfactory receptors candidates, and also Gα15, RTP1, Myr-Ric8A, HSC70, and m-Cherry as cofactors. The precipitation could be created after 15-20 min, with dropping the transfection solution on HEK293 cells. Before measuring by Ca-imaging cells were incubated 48-60 hours at 370 C, 5% CO2. Cationic liposome-mediated transfection method was applied to transfect DNA plasmid transiently in HANA3A cells in case of CRE-Luciferase and CRE-SEAP assays.
(§3) Calcium imaging of the transfected HEK293 cells was done by using chambers determinate an inverted microscope (Olympus; IX70) using a 10× objective (CPIanFL N Olympus). Fluorescence emission was determined every 4 s by using a CCD camera (Charge Coupled Device, C9100 Hamamatsu). The capillary tube which was responsible to supply odorants was generated closely above the cells. The columns filled with odorants, DMSO and ATP. Odorants were manually monitored to drop each 4-5 s to transfected cells. Solutions with drop wise form spread on HEK293 cells in 35 mm dishes.
In experiments, Fura-2 Acetoxymethylester (Fura-2/AM) was applied. The non-polar Fura2/AM is fluorescent but not yet calcium-sensitive. Once diffuses into cell plasma, Fura-2/AM is hydrolyzed to Fura-2 which is calcium-sensitive and functions as Ca2+ chelator. Regardless of the presence of calcium, Fura-2 emits at the wavelength of 510 nm. […] According to this feature, the analysis of 340/380 nm excitation ratio for Fura-2 allows to quantify intracellular calcium levels. […]
(§4) Ringer's solution was used for washing cells between measuring by two different odorants. Positive response was determined by the timing of the response, the strength of the response (more than twofold higher than the noise amplitude of the baseline), and the shape of the response curve (sharp rise in curve with gradual recovery). […]

OR4E2 = biological target: T2, OR4E2 (Homo sapiens, UniProt Q8NGC2); experiment: Ca-imaging of OR4E2-transfected HEK293 cells; set-up: key: ▪: 18 olfactory receptors responded to 32 odorants in related with specific anosmia; details: individual odorant 200 μM, significant response p<0.05
T2 construct: specific primers, which amplify the complete open reading frame; expressed in transfected cells; host or cells: HEK293
T2 sequence (Q8NGC2 1-313): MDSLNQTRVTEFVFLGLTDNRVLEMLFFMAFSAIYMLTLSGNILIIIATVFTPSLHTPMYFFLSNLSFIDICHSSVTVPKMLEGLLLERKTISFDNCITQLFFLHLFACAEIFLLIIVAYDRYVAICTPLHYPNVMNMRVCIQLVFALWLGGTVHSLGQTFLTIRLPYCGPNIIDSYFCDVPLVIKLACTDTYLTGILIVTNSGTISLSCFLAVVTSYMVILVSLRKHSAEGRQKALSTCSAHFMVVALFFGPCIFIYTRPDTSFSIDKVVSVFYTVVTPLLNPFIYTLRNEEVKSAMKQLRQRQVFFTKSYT
Description: as §1
as §2, with “Cationic liposome-mediated transfection method was applied to transfect DNA plasmid transiently in HANA3A cells in case of CRE-Luciferase and CRE-SEAP assays.” left out
(§5) Calcium imaging of the transfected HEK293 cells was done by using chambers determinate an inverted microscope (Olympus; IX70) using a 10× objective (CPIanFL N Olympus). Fluorescence emission was determined every 4 s by using a CCD camera (Charge Coupled Device, C9100 Hamamatsu). […] Odorants were manually monitored to drop each 4-5 s to transfected cells. […]
(§6) In experiments, Fura-2 Acetoxymethylester (Fura-2/AM) was applied. […] According to this feature, the analysis of 340/380 nm excitation ratio for Fura-2 allows to quantify intracellular calcium levels. […]
as §4

OR4K2 = biological target: T3, OR4K2 (Homo sapiens, UniProt Q8NGD2); experiment: Ca-imaging of OR4K2-transfected HEK293 cells; set-up: key to OR4K2 responded to odorant: ▪: 18 olfactory receptors responded to 32 odorants in related with specific anosmia; details: HEK293 cells, individual odorant 200 μM, significant response p<0.05
T3 construct: specific primers, which amplify the complete open reading frame; expressed in transfected cells; host or cells: HEK293
T3 sequence (Q8NGD2 1-314): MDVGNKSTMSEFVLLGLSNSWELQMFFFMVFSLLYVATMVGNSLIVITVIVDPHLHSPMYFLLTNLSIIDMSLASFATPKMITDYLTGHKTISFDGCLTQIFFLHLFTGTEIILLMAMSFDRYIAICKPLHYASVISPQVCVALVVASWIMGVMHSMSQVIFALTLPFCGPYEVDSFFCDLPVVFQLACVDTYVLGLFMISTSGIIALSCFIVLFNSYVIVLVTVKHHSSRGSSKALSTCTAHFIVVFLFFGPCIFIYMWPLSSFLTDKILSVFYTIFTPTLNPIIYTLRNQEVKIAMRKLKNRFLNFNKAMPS
Description: as §1, §2, §3
In experiments, Fura-2 Acetoxymethylester (Fura-2/AM) was applied. The non-polar Fura2/AM is fluorescent but not yet calcium-sensitive. Once diffuses into cell plasma, Fura-2/AM is hydrolyzed to Fura-2 which is calcium-sensitive and functions as Ca2+ chelator. Regardless of the presence of calcium, Fura-2 emits at the wavelength of 510 nm. Once Fura-2 binds to free intracellular Ca2+ in cell plasma, its ratio of excitation at wavelengths of 340 nm and 380 nm is changed and correlated to the amount of intracellular Ca2+. According to this feature, the analysis of 340/380 nm excitation ratio for Fura-2 allows to quantify intracellular calcium levels.
In preparation for Ca-imaging measurements, transfected HEK293 cells were added 3 it Fura2/AM (3 μM) and incubated 30-45 min at 370 C, 5% CO2. After this step, experiments were carried out in a dark condition (Fura-2 is light-sensitive). After the incubation, medium of cell culture was replaced with 2 ml Ringer's solution.
Odorants were freshly prepared with DMSO as 1 M stocks solutions. Six mixtures (200 μM each chemical) were applied to cells sequentially (20 s each mixture/30 s Ringer). Those ORs tested with single odorants that had generated a response to odorant mixture group previously. Odorants were prepared in 100-200 μM concentration.
as §4

OR12D2 = biological target: T4, OR12D2 (Homo sapiens, UniProt P58182); experiment: Ca-imaging of OR12D2-transfected HEK293 cells; set-up: key: ▪: 18 olfactory receptors responded to 32 odorants in related with specific anosmia; details: individual odorant 200 μM, significant response p<0.05
T4 construct: specific primers, which amplify the complete open reading frame; expressed in transfected cells; host or cells: HEK293
T4 sequence (P58182 1-307): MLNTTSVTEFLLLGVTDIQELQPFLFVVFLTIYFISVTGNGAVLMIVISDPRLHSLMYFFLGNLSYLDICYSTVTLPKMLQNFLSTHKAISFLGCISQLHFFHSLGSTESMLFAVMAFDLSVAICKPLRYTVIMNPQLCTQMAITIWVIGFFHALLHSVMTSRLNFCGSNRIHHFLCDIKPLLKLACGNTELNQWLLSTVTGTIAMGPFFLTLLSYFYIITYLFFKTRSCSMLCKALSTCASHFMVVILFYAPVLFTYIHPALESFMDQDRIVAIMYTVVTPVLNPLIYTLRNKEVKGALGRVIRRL
Description: In preparation for Ca-imaging measurements, transfected HEK293 cells were added 3 it Fura2/AM (3 μM) and incubated 30-45 min at 370 C, 5% CO2. After this step, experiments were carried out in a dark condition (Fura-2 is light-sensitive). […]

OR4K5 = biological target: T5, OR4K5 (Homo sapiens, UniProt Q8NGD3); experiment: Ca-imaging of OR4K5-transfected HEK293 cells; set-up: key to OR4K5 responded to odorant: ▪: 18 olfactory receptors responded to 32 odorants in related with specific anosmia; details: HEK293 cells, individual odorant 200 μM, significant response p<0.05
T5 construct: specific primers, which amplify the complete open reading frame; expressed in transfected cells; host or cells: HEK293
T5 sequence (Q8NGD3 1-323): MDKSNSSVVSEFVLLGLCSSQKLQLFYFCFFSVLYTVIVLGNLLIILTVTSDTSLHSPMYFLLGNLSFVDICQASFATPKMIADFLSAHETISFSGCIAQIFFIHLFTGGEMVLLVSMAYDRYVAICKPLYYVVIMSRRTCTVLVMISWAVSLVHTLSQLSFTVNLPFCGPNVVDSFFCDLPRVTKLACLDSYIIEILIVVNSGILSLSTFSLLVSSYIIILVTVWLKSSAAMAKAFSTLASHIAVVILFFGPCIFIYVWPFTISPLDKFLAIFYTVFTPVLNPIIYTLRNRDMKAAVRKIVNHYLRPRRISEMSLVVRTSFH
Description: as §1
as §2, with “Cationic liposome-mediated transfection method was applied to transfect DNA plasmid transiently in HANA3A cells in case of CRE-Luciferase and CRE-SEAP assays.” left out
as §5, §6, §4

OR4P4 = biological target: T6, OR4P4 (Homo sapiens, UniProt Q8NGL7); experiment: Ca-imaging of OR4P4-transfected HEK293 cells; set-up: key to OR4P4 responded to odorant: ▪: 18 olfactory receptors responded to 32 odorants in related with specific anosmia; details: for OR4P4 responded to odorant: HEK293 cells, individual odorant 200 μM, significant response p<0.05
T6 construct: specific primers, which amplify the complete open reading frame; expressed in transfected cells; host or cells: HEK293
T6 sequence (Q8NGL7 1-312): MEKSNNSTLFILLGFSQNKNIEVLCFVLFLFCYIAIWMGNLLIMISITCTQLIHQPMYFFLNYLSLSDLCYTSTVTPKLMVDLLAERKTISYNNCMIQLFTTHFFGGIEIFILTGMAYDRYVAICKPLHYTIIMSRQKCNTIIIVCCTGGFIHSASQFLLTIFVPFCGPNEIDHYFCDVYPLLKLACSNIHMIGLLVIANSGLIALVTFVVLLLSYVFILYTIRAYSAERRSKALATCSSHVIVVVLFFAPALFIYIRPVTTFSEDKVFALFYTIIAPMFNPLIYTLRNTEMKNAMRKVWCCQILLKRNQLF
Description: as §1
as §2, with “Cationic liposome-mediated transfection method was applied to transfect DNA plasmid transiently in HANA3A cells in case of CRE-Luciferase and CRE-SEAP assays.” left out
as §5, §6, §4

Compound: C=CC(=O)CCCCC [1-Octan-3-One, 1-Octen-3-one]
OR52B4 responded to odorant (OR52B4): ▪

Compound: COc1c(Cl)cc(Cl)cc1Cl [2-4-6 trichoroanisole, 2-4-6-Trichloroanisole]
OR52B4 responded to odorant (OR52B4): ▪
OR4E2 responded to odorant (OR4E2): ▪

Compound: O=CCCc1ccccc1 [3-phenyl propyl aldehyde, 3-Phenylpropionaldehyde]
OR4K2 responded to odorant (OR4K2): ▪
OR4E2 responded to odorant (OR4E2): ▪

Compound: CC(=O)O [Acetic acid]
OR12D2 responded to odorant (OR12D2): ▪

Compound: CO[C@]1(C)CC[C@@]23C[C@@H]1C(C)(C)[C@@H]2CC[C@H]3C [Cedramber]
OR4K5 responded to odorant (OR4K5): ▪

Compound: CC(C)C=O [Isobutyr aldehyde, Isobutyraldehyde]
OR4K2 responded to odorant (OR4K2): ▪

Compound: CCCCCC(=O)O [N-Hexanoic acid, NHexanoic acid]
OR4P4 responded to odorant (OR4P4): ▪

Further lines, results first:

OR52B4 responded to odorant (OR52B4): ▪
Compound: CC1CCCC2(C)CCCCC12O (stereo not shown) [Geosmin]

OR4E2 responded to odorant (OR4E2): ▪
Compound: CC(C)=CCC/C(C)=C/CO [Graniol, Geraniol]

OR12D2 responded to odorant (OR12D2): ▪
Compound: CC(C)CC(=O)O [Isovaleric acid]

OR12D2 responded to odorant (OR12D2): ▪
Compound: CCC(=O)O [Propionic acid]

OR52B4 responded to odorant (OR52B4): ▪
Compound: CC/C(=C\CC1CC=C(C)C1(C)C)CO (stereo not shown) [Sandranol]

OR4P4 responded to odorant (OR4P4): ▪
Response of OR4P4 to odorant, in words (OR4P4; single odorants 200 μM): responded
Compound: Globalide
